According to patent US9562082B2, “Production of glycoproteins with low N-glycolylneuraminic acid (Neu5Gc) content” (LEK Pharmaceuticals D.D., priority 2009, dated 2017):

System: Recombinant CHO cells
Assay: Content of the most acidic isoforms 7 and 8 (degree of sialylation) of secreted glycoprotein by AEX
Format: cell-based, Chinese hamster
Settings: for percentage of the most acidic isoforms: 0.75% (w/v) DMSO
Protocol: Throughout the entire description, above and below and including the examples, unless explicitly stated otherwise, the degree of sialylation is given in % (w/w) and was calculated as follows. Since the inventor had not available a method to directly measure the degree of sialylation (%, w/w), she estimated same indirectly from the relative content of the most acidic isoforms of each glycoprotein. Since isoforms 7 and 8 (see next paragraph) are the most acidic ones, she figured out that an increase of isoforms 7 and 8 is an indicator for the increased degree of sialylation. The inventor measured the distribution of the isoforms of a particular glycoprotein (e.g., of darbepoetin alfa, which is a cytokine) with AEX (anion exchange chromatography). AEX is not a quantitative method. Therefore, the inventor split the histogram into three parts as follows: the most basic isoforms 1, 2, and 3, the middle acidic isoforms 4, 5, and 6, and the most acidic isoforms 7 and 8. […] Therefore, the inventor compared, for each glycoprotein tested, the content (%, w/w) of the most acidic isoforms resulting from media without and from media with the additives according to the invention. In case their content increased, the inventor concluded that the degree of sialylation had likewise increased. Therefore, the degree of sialylation in the present application is given as the relative content of the most acidic isoforms (%, w/w). The increase in the degree of sialylation (of a particular glycoprotein obtained from a host cell culture using a medium with the additives according to the present invention vs. that of said glycoprotein obtained from a host cell culture using a medium without the inventive additives) is given on the basis of the increase of the content of the most acidic isoforms (%) after cultivating the host cells in the presence vs. absence of said additives. Recombinant CHO cells expressing high titres of the glycosylated human glycoproteins were cultivated in suspension culture using rich in-house standard medium without additives according to the invention. After 2 weeks of passages, the cells were first harvested and subsequently inoculated into the same medium, however, supplemented with a range of DMSO concentrations from 0.25% to 1.50% (w/v). The effect of DMSO on growth, productivity, degree of sialylation, and Neu5Gc content was studied. “One factor at the time”-experiments with different DMSO concentrations at 37° C. and 33° C., respectively, were performed at first in an attempt to determine the DMSO concentration and temperature which are best to minimise the Neu5Gc content on the glycoproteins secreted. To study the interaction between the parameters (i) DMSO concentration, (ii) time of DMSO addition, and (iii) time of the temperature shift (from 37° C. to 33° C.), further experiments were performed with the Design-Expert/Design-Ease programme (Stat-Ease, Inc., Minneapolis, Minn., USA) using the response surface method. Parameters (i), (ii), and (iii) were chosen as numeric factors and the axial points were set slightly out of already known ranges in order to cover a wide design space. One replicate on axial points, one replicate on factorial points and 4 centre points were performed. The results were analysed using the Design of Expert (DOE) software (Design-Expert, Version 7.1). The results of the shake flask experiments were confirmed in the Biostat®B bioreactor (Sartorius, B. Braun Biotech International, Germany). Exponentially growing cells were taken from cell culture flasks having a surface area of 225 cm^2 (Corning®Costar®). A Biostat®B bioreactor with a working volume of 5 litres was inoculated with 2×10^5 cells/ml. […] Following glycoprotein purification, the isoform distribution of the immuno-affinity purified glycoproteins was determined by anion exchange chromatography (AEX). The chromatographic separation of various isoforms is based on the differences in their charges. […]

SMILES: C[S+](C)[O-] [DMSO, dimethyl sulfoxide]
- average content of the most acidic isoforms, all glycoproteins tested (0.5% DMSO): 1.31%
- average content of the most acidic isoforms, all glycoproteins tested (0.75% DMSO): 1.28%
- average content of the most acidic isoforms, all glycoproteins tested (1% DMSO): 1.21%
- average content of the most acidic isoforms, all glycoproteins tested (1.25% DMSO): 1.26%
- Isoforms 7&8, DOE point prediction (DMSO 0.75, temperature 37): 1.21%
- percentage of the most acidic isoforms (bioreactor batch process): about 2.2%
- percentage of the most acidic isoforms (shake flask batch process): about 1.35%
